Test results from paper PMC11909324 (Journal of the Science of Food and Agriculture, 2024).
Where “and” joins values, the source holds several entries; their conditions need not be identical. Equal values may be shown once. Read-outs that look alike come from different tables or passages of the source.

What was measured:
xanthine oxidase (XO) [1] = target: T1, xanthine oxidase (XO) (Bos taurus, UniProt P80457); test: XO assay with xanthine as substrate (uric acid formation, HPLC-UV); format: biochemical, bovine; details: for IC50: XO 0.0003 U mL^−1, 8 min, 37 °C, pH 7.5, read-out: IC50, xanthine oxidation; for IC50 / XO-catalyzed uric acid formation / decrease in uric acid production (inhibition of XO-catalyzed xanthine oxidation) / inhibition at 20 µM: xanthine 5 μmol L^−1; for XO-catalyzed uric acid formation: inhibitor 5 μmol L^−1; for α = IC50 of flavonoid/IC50 of positive control, xanthine oxidation: relative to APU; for decrease in uric acid production (inhibition of XO-catalyzed xanthine oxidation) / inhibition at 20 µM: inhibitor 20 μmol L^−1; for inhibition at 20 µM: read-out: decrease in uric acid production (inhibition of XO-catalyzed xanthine oxidation);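 on all read-outs here: incubations in 0.05 mol L^−1 sodium phosphate buffer, with uric acid and remaining xanthine both quantified by HPLC-UV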
T1 construct: XO (from bovine milk); purchased Merck (Darmstadt, Germany); host or cells: bovine milk (natural source)

xanthine oxidase (XO) [2] = target: T1, xanthine oxidase (XO); test: XO assay with 6MP as substrate (6-thiouric acid formation, HPLC-UV); format: biochemical, bovine; details: for IC50: XO 0.01 U mL^−1, 25 min, 37 °C, pH 7.5, read-out: IC50, 6MP oxidation; for fold stronger inhibition than APU, 6MP assay: based on IC50 values; for XO-catalyzed 6-thiouric acid formation: inhibitor 5 μmol L^−1; for α = IC50 of flavonoid/IC50 of positive control, 6MP oxidation: relative to APU; for IC50(6MP)/IC50(xanthine): ratio of IC50 values with the two substrates; for lower decrease in metabolite formation in the 6MP assay than in the xanthine assay: difference between assays;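 on all read-outs here: incubation in 0.05 mol L^−1 sodium phosphate buffer, with 6MP and 6-thiouric acid quantified by HPLC-UV and conversion taken as the product share of substrate plus product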
xanthine oxidase (XO) [3] = target: T1, xanthine oxidase (XO); test: Reversibility of XO inhibition (preincubation, increasing xanthine concentrations); format: biochemical, bovine; details: SBS 5 μmol L^−1, DSC and DSCS 0.5 μmol L^−1; 10 min preincubation; xanthine 5, 25, 50 μmol L^−1
Protocol: After 8 min incubation (700 rpm, 37 °C), the reaction was stopped, and the samples were treated in the same way as described in the previous paragraph.

xanthine oxidase (XO) [4] = target: T1, xanthine oxidase (XO); test: Fluorescence quenching studies of polyphenol-XO complexes; format: binding, bovine; details: for Log K SV ± SEM (Stern–Volmer quenching constant): K SV in L mol^−1
Protocol: Increasing concentrations of polyphenols (0, 2, 4, 6, 8 and 10 μmol L^−1) were added to a standard amount of XO (0.4 μmol L^−1) in sodium phosphate buffer (0.05 mol L^−1, pH 7.5). Then, the emission spectra of XO were recorded using 280 nm excitation wavelength. The inner‐filter effects of silymarin components/metabolites were corrected based on the following equation[39], [41], [42]: (1) Icor=Iobs×e^Aex+Aem/2 where I cor is the corrected and I obs is the observed emission intensity; while A ex and A em are the absorbance of polyphenols at the excitation and emission wavelengths applied, respectively. Polyphenol‐induced fluorescence quenching was evaluated at 335 nm. Stern–Volmer quenching constants (K SV; unit: L mol^−1) of polyphenol–XO complexes were determined using the graphical application of the Stern–Volmer equation[43], [44], [45]: (2) I0/I=1+KSV×Q where I 0 and I are the emission signals of XO without and with the polyphenols tested, respectively, and [Q] denotes the molar concentration (mol L^−1) of the quencher (polyphenols). The binding constants (K; unit: L mol^−1) of polyphenol–XO complexes were calculated applying the modified Stern–Volmer equation[43], [44], [45]: (3) I0/I0−I=1/fa×K×1/Q+1/fa where I 0, I and [Q] have the same meaning as in Eqn (2), and f a is the fraction of the accessible fluorophore.

[5] = in vivo; cited from earlier work
[6] = λex 280 nm, λem 335 nm, XO 0.4 μmol L^−1, pH 7.5
[7] = association constant K in L mol^−1, λex 280 nm, λem 335 nm, XO 0.4 μmol L^−1, pH 7.5
[8] = inhibitor 20 μmol L^−1, 6MP 5 μmol L^−1
[9] = association constant K in L mol^−1, λex 280 nm, λem 335 nm, XO 0.4 μmol L^−1, pH 7.5, read-out: Log K ± SEM (binding constant, modified Stern–Volmer) (converted)

T1 sequence (P80457 whole entry): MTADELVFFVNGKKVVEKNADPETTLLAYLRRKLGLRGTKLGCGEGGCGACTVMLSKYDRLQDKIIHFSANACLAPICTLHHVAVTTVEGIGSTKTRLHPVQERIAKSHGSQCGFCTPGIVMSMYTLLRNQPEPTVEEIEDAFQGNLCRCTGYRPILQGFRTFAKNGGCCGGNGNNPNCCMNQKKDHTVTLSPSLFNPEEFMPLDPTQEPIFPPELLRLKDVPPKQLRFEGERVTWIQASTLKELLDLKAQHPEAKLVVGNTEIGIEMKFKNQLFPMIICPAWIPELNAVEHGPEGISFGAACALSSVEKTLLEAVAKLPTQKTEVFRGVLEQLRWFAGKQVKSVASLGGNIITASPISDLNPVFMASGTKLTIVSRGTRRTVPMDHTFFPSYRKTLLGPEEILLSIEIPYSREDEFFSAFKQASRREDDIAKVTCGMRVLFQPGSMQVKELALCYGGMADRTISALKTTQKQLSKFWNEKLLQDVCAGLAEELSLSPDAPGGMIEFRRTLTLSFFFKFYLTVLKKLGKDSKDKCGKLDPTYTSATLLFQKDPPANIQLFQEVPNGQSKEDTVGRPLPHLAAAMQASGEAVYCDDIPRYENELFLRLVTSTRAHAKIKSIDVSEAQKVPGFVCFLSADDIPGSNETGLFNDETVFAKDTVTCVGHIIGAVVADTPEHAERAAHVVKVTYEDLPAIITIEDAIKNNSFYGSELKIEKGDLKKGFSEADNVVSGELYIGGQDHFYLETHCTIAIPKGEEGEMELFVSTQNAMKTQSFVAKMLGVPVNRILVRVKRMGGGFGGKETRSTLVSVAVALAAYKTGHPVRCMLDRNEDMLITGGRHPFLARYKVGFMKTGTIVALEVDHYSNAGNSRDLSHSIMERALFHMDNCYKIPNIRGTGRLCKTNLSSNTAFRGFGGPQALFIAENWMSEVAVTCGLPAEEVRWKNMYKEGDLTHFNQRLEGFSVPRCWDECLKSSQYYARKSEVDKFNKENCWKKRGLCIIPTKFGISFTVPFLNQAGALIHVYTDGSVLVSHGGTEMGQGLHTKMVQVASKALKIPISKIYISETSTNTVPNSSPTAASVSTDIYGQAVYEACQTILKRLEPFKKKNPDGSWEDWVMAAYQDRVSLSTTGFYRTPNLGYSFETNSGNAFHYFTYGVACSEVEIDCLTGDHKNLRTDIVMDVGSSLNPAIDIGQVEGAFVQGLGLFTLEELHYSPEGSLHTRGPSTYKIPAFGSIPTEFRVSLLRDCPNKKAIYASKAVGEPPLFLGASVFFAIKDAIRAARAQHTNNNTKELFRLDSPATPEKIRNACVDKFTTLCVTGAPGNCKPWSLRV

Compound | IC50 (xanthine oxidase (XO) [1]) | α = IC50 of flavonoid/IC50 of positive control, xanthine oxidation (xanthine oxidase (XO) [1]) | IC50 (xanthine oxidase (XO) [2]; 6MP 5 μmol L^−1) [nM] | α = IC50 of flavonoid/IC50 of positive control, 6MP oxidation (xanthine oxidase (XO) [2]) | Log K SV ± SEM (Stern–Volmer quenching constant) (xanthine oxidase (XO) [4]; [6]) | Log K ± SEM (binding constant, modified Stern–Volmer) (xanthine oxidase (XO) [4]; [7]) | decrease in uric acid production (inhibition of XO-catalyzed xanthine oxidation) (xanthine oxidase (XO) [1]) | decrease in 6-thiouric acid formation (inhibition of XO-catalyzed 6MP oxidation) (xanthine oxidase (XO) [2]; [8]) | other results
COc1cc(C2Oc3c(O)cc(-c4oc5cc(O)cc(O)c5c(=O)c4O)cc3C2CO)ccc1OS(=O)(=O)O (mixture of isomers) [DSCS, 2,3‐dehydrosilychristin‐19‐O‐sulfate] | 80 nM | 0.31 | 210 | 0.05 | 4.68 ± 0.01 | 5.12 ± 0.03 | – | – | XO-catalyzed uric acid formation (xanthine oxidase (XO) [1]): almost completely abolished; fold stronger inhibition than APU, 6MP assay (xanthine oxidase (XO) [2]): approximately 20 fold; XO-catalyzed 6-thiouric acid formation (xanthine oxidase (XO) [2]; 6MP 5 μmol L^−1): almost completely abolished; reversibility of the inhibitory action on XO (xanthine oxidase (XO) [3]): reversible; K (binding constant) of polyphenol–XO complex (xanthine oxidase (XO) [4]; fluorescence quenching): above 10^5 L mol^−1
O=C(O)[C@H]1O[C@@H](Oc2cc(O)cc(/C=C/c3ccc(O)cc3)c2)[C@H](O)[C@@H](O)[C@@H]1O [R3G, resveratrol‐3‐glucuronide] | – | – | – | – | – | – | 10% | not significant | peak plasma concentrations [5]: 10 to 20 µmol/L
Oc1cc(O)c2c(c1)O[C@H](c1cc(O)c(O)c(O)c1)[C@H](O)C2 [EGC, epigallocatechin] | – | – | – | – | – | – | did not cause significant changes | only slight inhibitory action | –
O=C(O[C@@H]1Cc2c(O)cc(O)cc2O[C@@H]1c1ccc(O)c(O)c1)c1cc(O)c(O)c(O)c1 [ECG, epicatechin gallate] | – | – | – | – | – | – | – | weak to moderate inhibitors | inhibition at 20 µM (xanthine oxidase (XO) [1]): ~50%
Oc1cc(O)c2c(c1)OC(c1ccc(O)c(O)c1)C(O)C2 (stereo not shown) [CAT, catechin] | – | – | – | – | – | – | did not cause significant changes | – | –
COc1cc(C2Oc3c(O)cc(C4Oc5cc(O)cc(O)c5C(=O)C4O)cc3C2CO)ccc1OS(=O)(=O)O (mixture of isomers) [SCS, silychristin‐19‐O‐sulfate] | – | – | – | – | 4.37 ± 0.03 | 4.66 ± 0.02 | weaker effect compared to its parent compound | weak to moderate inhibitors | lower decrease in metabolite formation in the 6MP assay than in the xanthine assay (xanthine oxidase (XO) [2]; inhibitor 20 μmol L^−1): ~20%
O=C(O[C@@H]1Cc2c(O)cc(O)cc2O[C@@H]1c1cc(O)c(O)c(O)c1)c1cc(O)c(O)c(O)c1 [EGCG, epigallocatechin gallate] | – | – | – | – | – | – | approximately 50% | weak to moderate inhibitors | –
COc1cc([C@@H]2Oc3c(O)cc(-c4oc5cc(O)cc(O)c5c(=O)c4O)cc3[C@H]2CO)ccc1O [DSC, 3,5,7‐trihydroxy‐2‐[(2R,3S)‐7‐hydroxy‐2‐(4‐hydroxy‐3‐methoxyphenyl)‐3‐(hydroxymethyl)‐2,3‐dihydro‐1‐benzofuran‐5‐yl]chromen‐4‐one] | 90 nM | 0.35 | 290 | 0.07 | 4.68 ± 0.01 | – | – | marked decreases | fold stronger inhibitor of xanthine oxidation compared to SC (xanthine oxidase (XO) [1]; based on IC50 values): 50 fold; XO-catalyzed uric acid formation (xanthine oxidase (XO) [1]): almost completely abolished; inhibition at 20 µM (xanthine oxidase (XO) [1]): 96%; fold stronger inhibition than APU, 6MP assay (xanthine oxidase (XO) [2]): ~15 fold; XO-catalyzed 6-thiouric acid formation (xanthine oxidase (XO) [2]; 6MP 5 μmol L^−1): almost completely abolished; inhibition at 20 µM (xanthine oxidase (XO) [2]; inhibitor 20 μmol L^−1, 6MP 5 μmol L^−1, read-out: decrease in 6-thiouric acid formation (inhibition of XO-catalyzed 6MP oxidation)): > 80%; IC50(6MP)/IC50(xanthine) (xanthine oxidase (XO) [2]): 3.2; reversibility of the inhibitory action on XO (xanthine oxidase (XO) [3]): reversible; Kd (xanthine oxidase (XO) [4]; [9]): 7760 nM; Kd (xanthine oxidase (XO) [4]; fluorescence quenching, read-out: K (binding constant) of polyphenol–XO complex): < 10000 nM
Oc1ncnc2[nH]ncc12 [APU, allopurinol, reference compound] | – | – | – | – | – | – | almost completely abolished metabolite formation | marked decreases | –

The next lines start with results.

IC50 (xanthine oxidase (XO) [1]) | α = IC50 of flavonoid/IC50 of positive control, xanthine oxidation (xanthine oxidase (XO) [1]) | IC50 (xanthine oxidase (XO) [2]; 6MP 5 μmol L^−1) [nM] | α = IC50 of flavonoid/IC50 of positive control, 6MP oxidation (xanthine oxidase (XO) [2]) | Log K SV ± SEM (Stern–Volmer quenching constant) (xanthine oxidase (XO) [4]; [6]) | Log K ± SEM (binding constant, modified Stern–Volmer) (xanthine oxidase (XO) [4]; [7]) | decrease in uric acid production (inhibition of XO-catalyzed xanthine oxidation) (xanthine oxidase (XO) [1]) | decrease in 6-thiouric acid formation (inhibition of XO-catalyzed 6MP oxidation) (xanthine oxidase (XO) [2]; [8]) | Compound | other results
240 nM | 0.92 | 570 | 0.14 | 4.63 ± 0.01 | 5.05 ± 0.02 | more than 80% | – | COc1cc([C@@H]2Oc3cc([C@H]4Oc5cc(O)cc(O)c5C(=O)[C@@H]4O)ccc3O[C@H]2CO)ccc1OS(=O)(=O)O [SBS, silybin B‐20‐O‐sulfate] | XO-catalyzed uric acid formation (xanthine oxidase (XO) [1]): almost completely abolished; fold stronger inhibition than APU, 6MP assay (xanthine oxidase (XO) [2]): ~7 fold; XO-catalyzed 6-thiouric acid formation (xanthine oxidase (XO) [2]; 6MP 5 μmol L^−1): almost completely abolished; IC50(6MP)/IC50(xanthine) (xanthine oxidase (XO) [2]): 2.4; reversibility of the inhibitory action on XO (xanthine oxidase (XO) [3]): reversible; K (binding constant) of polyphenol–XO complex (xanthine oxidase (XO) [4]; fluorescence quenching): above 10^5 L mol^−1
– | – | – | – | – | – | did not cause significant changes | – | Oc1cc(O)c2c(c1)O[C@H](c1ccc(O)c(O)c1)[C@H](O)C2 [ECT, epicatechin] | –
– | – | – | – | 4.46 ± 0.01 | – | – | weak to moderate inhibitors | COc1cc([C@H]2Oc3ccc([C@H]4Oc5cc(O)cc(O)c5C(=O)[C@@H]4O)cc3O[C@@H]2CO)ccc1O [ISA, isosilybin A] | inhibition at 20 µM (xanthine oxidase (XO) [1]): 64%; lower decrease in metabolite formation in the 6MP assay than in the xanthine assay (xanthine oxidase (XO) [2]; inhibitor 20 μmol L^−1): ~20%; Kd (xanthine oxidase (XO) [4]; [9]): 18200 nM
680 nM | 2.62 | 2860 | 0.68 | 4.49 ± 0.01 | 4.90 ± 0.04 | more than 80% | – | isosilybin A‐20‐O‐sulfate [ISAS] | IC50(6MP)/IC50(xanthine) (xanthine oxidase (XO) [2]): 4.2
– | – | – | – | 4.45 ± 0.04 | – | only weak inhibitors | weak to moderate inhibitors | COc1cc([C@H]2Oc3cc([C@H]4Oc5cc(O)cc(O)c5C(=O)[C@@H]4O)ccc3O[C@@H]2CO)ccc1O [SA, silybin A] | Kd (xanthine oxidase (XO) [4]; [9]): 19500 nM
– | – | – | – | 4.49 ± 0.01 | – | only weak inhibitors | weak to moderate inhibitors | COc1cc([C@@H]2Oc3cc([C@H]4Oc5cc(O)cc(O)c5C(=O)[C@@H]4O)ccc3O[C@H]2CO)ccc1O [SB, (2R,3R)‐3,5,7‐trihydroxy‐2‐[(2S,3S)‐3‐(4‐hydroxy‐3‐methoxyphenyl)‐2‐(hydroxymethyl)‐2,3‐dihydro‐1,4‐benzodioxin‐6‐yl]‐2,3‐dihydrochromen‐4‐one] | Kd (xanthine oxidase (XO) [4]; [9]): 13500 nM
1400 nM and 1430 nM | 5.50 | 2910 | 0.69 | 4.58 ± 0.03 | 4.99 ± 0.05 | more than 80% | – | COc1cc([C@H]2Oc3cc([C@H]4Oc5cc(O)cc(O)c5C(=O)[C@@H]4O)ccc3O[C@@H]2CO)ccc1OS(=O)(=O)O [SAS, silybin A‐20‐O‐sulfate] | IC50(6MP)/IC50(xanthine) (xanthine oxidase (XO) [2]): 2.0
4500 nM | 17.3 | 10000 | 2.38 | 4.43 ± 0.01 | 4.81 ± 0.01 | – | – | COc1cc([C@@H]2Oc3c(O)cc([C@H]4Oc5cc(O)cc(O)c5C(=O)[C@@H]4O)cc3[C@H]2CO)ccc1O [SC, silychristin] | IC50(6MP)/IC50(xanthine) (xanthine oxidase (XO) [2]): 2.2
